Earlier results in patent publication US7858656B2, “Controlled release formulations containing an active ingredient, preferably melatonin and the method of preparation” (Ambros Pharma S.R.L., priority 2000, dated 2010).

Details: in various species, including man

half-life of melatonin: 20 to 40 min
Compound: COc1ccc2[nH]cc(CCNC(C)=O)c2c1 [melatonin, N-acetyl-5-methoxytryptamine]
